According to patent US12448363B2, “Kinase inhibitors” (Vidya Therapeutics, Inc., priority 2020, dated 2025):

Key:
[1] = tested on: BTK Activity in RAMOS B Cells; test: Assay to determine BTK activity in RAMOS B cells (anti-IgM, FLIPR Calcium 6); type: cell-based; details: EC80 anti-IgM, FLIPR calcium read
Outline: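 Ramos B cells were loaded with Calcium 6 dye containing 5 mM probenecid (2 h at 37 °C, then 15 min at 25 °C) and exposed to compound for 60 min at 25 °C. Anti-IgM was then added from a 4×EC80 stock, and calcium flux was recorded by FLIPR for 160 s; IC50 was derived.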

BTK = BTK (Homo sapiens, UniProt Q06187); test: Assay to determine BTK inactivation rate in human whole blood (ELISA of unoccupied BTK); type: cell-based; set-up: Human whole blood is obtained from StemExpress; tissue StemExpress; host or cells: human whole blood; details: 37° C., 5, 15, 30, 60 minutes; for kinact/KI: read-out: BTK hWB Kinact/Ki
Method: Human Whole Blood Compound Treatment and Lysis
Human whole blood is obtained from StemExpress and kept at ambient temperature until the time of the experiment. […] This is prepared fresh each experimental day. […] Compounds are reconstituted to stocks of 10 mM and are diluted in two-fold serial dilutions to generate an 8-point curve in DMSO, with the last point being DMSO only, creating a 100× dilution series. A working 10× dilution series is created using 1.0 μL of the prepared DMSO titration, 100×, into […] 1×PBS in order to keep the DMSO constant. The human whole blood is added in the volume of 225 μL per well in a new 96w v-bottom plate, where one column of eight wells is sufficient for testing one compound. For compound treatment, 25 μL of 10× dilution series in PBS is added to the 225 μL whole blood, followed by briefly pipetting up and down twice. The plates are covered with lids and incubated at 37° C. for 5, 15, 30, 60 minutes. At each timepoint, 30 μL of treated blood is pulled from each column and added to preloaded collection plates that contain 30 μL of supplemented lysis buffer and mixed briefly. The collected and lysed samples shake on rotator for 60 minutes at room temperature. These samples are used fresh for detection via ELISA, and remaining sample is frozen at −80° C. if a repeat is necessary.
ELISA: Determining Amount of Unoccupied BTK
All streptavidin pre-coated plates (R&D Systems, #CP004) are brought to room temperature while samples are lysing. Assay Buffer 1, 1×PBS+0.05% Tween 20+1% BSA is prepared and stored at 4° C. when not in use. Using this Assay Buffer, assay buffer+1× protease/phosphatase inhibitor cocktail (PICs) is prepared in the amount needed for all samples. Assay Buffer+PICs in the volume of 90 μL/well is added to the ELISA plate. Lysed blood sample (10 μL) is added to the ELISA plate. BTK recombinant protein dilutions are prepared in assay buffer+PICS for use as a μM). The standard is loaded into the ELISA plate at 100 μL/well, in duplicate. These samples and standards remain in the plate, sealed, overnight at 4° C. The following day, the plate is washed four times with 1× Wash Buffer (1×PBS+0.05% Tween 20) using a plate washer. The plate is inverted to expel all fluid each time and blotted on clean paper towels to remove remaining liquid. Assay Buffer 2 is prepared (1×PBS+0.05% Tween 20+0.05% BSA) and kept at 4° C. when not in use. […] Diluted a-BTK antibody is added at 100 μl/well. The plate is covered with adhesive film and incubated for 90 minutes at room temperature. The plate is washed four times with 1× Wash Buffer (1×PBS+0.05% Tween 20) using a plate washer. The plate is inverted to expel all fluid each time and blotted on clean paper towels to remove remaining liquid. […] The diluted antibody is added at 100 μl/well. The plate is covered with adhesive film and incubated for one hour at room temperature. The plate is washed four times with 1× Wash Buffer using a plate washer. The plate is inverted to expel all fluid each time and blotted on clean paper towels to remove remaining liquid. […] The plate is incubated at room temperature in the dark for −5-10 minutes. The reaction is stopped by adding 50 μl/well 2N sulfuric acid (H2SO4) (R&D Systems, #DY994). The plate is read in a plate reader at the wavelengths […] and 570 nm (correction wavelength). Using Graphpad Prism, an XY table+graph is created, listing 0-60 minutes as X axis and concentration as Y axis. A One Phase Decay model fit is applied to the data. Checking Results table, the K values are obtained and new XY table+graph are created. Concentration is assigned to the X axis and K values from first analysis are entered. The Michaelis-Menten equation is applied to the data.

Sequence of BTK (Q06187 whole entry): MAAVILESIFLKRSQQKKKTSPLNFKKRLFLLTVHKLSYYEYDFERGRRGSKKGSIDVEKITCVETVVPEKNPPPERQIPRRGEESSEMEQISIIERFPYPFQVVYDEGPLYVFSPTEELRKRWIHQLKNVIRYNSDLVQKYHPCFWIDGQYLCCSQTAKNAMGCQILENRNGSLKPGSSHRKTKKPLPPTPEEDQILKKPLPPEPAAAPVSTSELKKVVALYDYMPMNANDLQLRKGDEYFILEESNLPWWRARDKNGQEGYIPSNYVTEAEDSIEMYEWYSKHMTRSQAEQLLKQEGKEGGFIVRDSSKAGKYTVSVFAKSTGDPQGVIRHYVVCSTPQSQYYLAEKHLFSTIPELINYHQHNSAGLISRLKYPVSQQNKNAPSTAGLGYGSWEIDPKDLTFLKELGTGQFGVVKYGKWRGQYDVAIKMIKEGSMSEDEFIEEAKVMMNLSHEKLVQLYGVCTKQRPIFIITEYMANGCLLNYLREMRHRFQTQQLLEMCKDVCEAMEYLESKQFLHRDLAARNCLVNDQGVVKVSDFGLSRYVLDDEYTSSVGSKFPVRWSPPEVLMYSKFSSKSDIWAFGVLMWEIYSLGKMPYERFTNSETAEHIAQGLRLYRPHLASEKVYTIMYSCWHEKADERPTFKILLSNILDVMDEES

IC50 ([1]; Homo sapiens, Ramos) | kinact/KI (BTK) | IC50 [1] | BTK hWB Kinact/Ki (BTK) | SMILES
10 to 100 nM | 1670 to 16700 M⁻¹ s⁻¹ | – | – | C=CC(=O)N1CCC2CCN(c3c(F)cc(C(N)=O)c4[nH]c(C)c(Cl)c34)CC21 (racemic) [Compound 29, 4-(1-acryloyloctahydro-6H-pyrrolo[2,3-c]pyridin-6-yl)-3-chloro-5-fluoro-2-methyl-1H-indole-7-carboxamide]
10 to 100 nM | < 1670 M⁻¹ s⁻¹ | – | – | C=CC(=O)N1CCC2CCN(c3c(F)cc(C(N)=O)c4[nH]c(C)c(Cl)c34)CC21 (single isomer, unassigned) [Compound 29a, 4-(1-acryloyloctahydro-6H-pyrrolo[2,3-c]pyridin-6-yl)-3-chloro-5-fluoro-2-methyl-1H-indole-7-carboxamide]
– | – | 10 to 100 nM | C (a Kinact/Ki<1×10^−4 nM^−1 min^−1) | C=CC(=O)N1CCC2CCN(c3c(F)cc(C(N)=O)c4[nH]c(C)c(C)c34)CC21 (single isomer, unassigned) [Compound 32b, 4-(1-acryloyloctahydro-6H-pyrrolo[2,3-c]pyridin-6-yl)-5-fluoro-2,3-dimethyl-1H-indole-7-carboxamide]
< 10 nM | 1670 to 16700 M⁻¹ s⁻¹ | – | – | CC#CC(=O)N[C@H]1C[C@@H](F)CN(c2c(F)cc(C(N)=O)c3[nH]c(C)c(Cl)c23)C1 [Compound 27, 4-((3S,5R)-3-(but-2-ynamido)-5-fluoropiperidin-1-yl)-3-chloro-5-fluoro-2-methyl-1H-indole-7-carboxamide]
< 10 nM | > 16700 M⁻¹ s⁻¹ | – | – | CC#CC(=O)N[C@H]1C[C@@H](F)CN(c2c(F)cc(C(N)=O)c3[nH]c(C)c(C)c23)C1 [Compound 33, 4-((3S,5R)-3-(but-2-ynamido)-5-fluoropiperidin-1-yl)-5-fluoro-2,3-dimethyl-1H-indole-7-carboxamide]
< 10 nM | > 16700 M⁻¹ s⁻¹ | – | – | CC#CC(=O)N[C@H]1C[C@H](F)CN(c2c(F)cc(C(N)=O)c3[nH]c(C)c(C)c23)C1 [Compound 35, 4-((3S,5S)-3-(but-2-ynamido)-5-fluoropiperidin-1-yl)-5-fluoro-2,3-dimethyl-1H-indole-7-carboxamide]
10 to 100 nM | < 1670 M⁻¹ s⁻¹ | – | – | CC#CC(=O)N1CCCC2CN(c3c(F)cc(C(N)=O)c4[nH]c(C)c(Cl)c34)CC21 (stereo not shown) [Compound 40, 4-(1-(but-2-ynoyl)octahydro-6H-pyrrolo[3,4-b]pyridin-6-yl)-3-chloro-5-fluoro-2-methyl-1H-indole-7-carboxamide]

Second part, the molecule before the results:

SMILES | IC50 ([1]; Homo sapiens, Ramos) | kinact/KI (BTK) | IC50 [1] | BTK hWB Kinact/Ki (BTK)
C=CC(=O)N1CCc2c(-c3c(F)cc(C(N)=O)c4[nH]c(C)c(Cl)c34)cccc2C1C (racemic) [Compound 22a, 4-(2-acryloyl-1-methyl-1,2,3,4-tetrahydroisoquinolin-5-yl)-3-chloro-5-fluoro-2-methyl-1H-indole-7-carboxamide] | 10 to 100 nM | 1670 to 16700 M⁻¹ s⁻¹ | – | –
C=CC(=O)N1CCc2c(cccc2-c2c(F)cc(C(N)=O)c3[nH]c(C)c(Cl)c23)C1 (single isomer, unassigned) [Compound 20b] | – | 1670 to 16700 M⁻¹ s⁻¹ | < 10 nM | –
C=CC(=O)N1CCC=C(c2c(F)cc(C(N)=O)c3[nH]c(C)c(Cl)c23)C1 [Compound 1, 4-(1-acryloyl-1,2,5,6-tetrahydropyridin-3-yl)-3-chloro-5-fluoro-2-methyl-1H-indole-7-carboxamide] | < 10 nM | > 16700 M⁻¹ s⁻¹ | – | –
C=CC(=O)N1CCC[C@@H](c2c(F)cc(C(N)=O)c3[nH]c(C)c(Cl)c23)C1 [Compound 2a, (S)-4-(1-acryloylpiperidin-3-yl)-3-chloro-5-fluoro-2-methyl-1H-indole-7-carboxamide] | < 10 nM | > 16700 M⁻¹ s⁻¹ | – | –
C=CC(=O)N1CCC[C@H](c2c(F)c(F)c(C(N)=O)c3[nH]c(C)c(F)c23)C1 [Compound 6a, (R)-4-(1-acryloylpiperidin-3-yl)-3,5,6-trifluoro-2-methyl-1H-indole-7-carboxamide] | < 10 nM | > 16700 M⁻¹ s⁻¹ | – | –
C=CC(=O)N1CCC[C@@H](c2c(F)c(F)c(C(N)=O)c3[nH]c(C)c(F)c23)C1 [Compound 6b, (S)-4-(1-acryloylpiperidin-3-yl)-3,5,6-trifluoro-2-methyl-1H-indole-7-carboxamide] | < 10 nM | > 16700 M⁻¹ s⁻¹ | – | –
C=CC(=O)N1CCC[C@@H](c2c(F)c(F)c(C(N)=O)c3[nH]c(C)c(Cl)c23)C1 [Compound 16, (S)-4-(1-acryloylpiperidin-3-yl)-3-chloro-5,6-difluoro-2-methyl-1H-indole-7-carboxamide] | < 10 nM | > 16700 M⁻¹ s⁻¹ | – | –
